Laboratory results as given in patent US6277860A, “Furopyridine antibacterials” (Pfizer Inc, priority 1999, dated 2001).
Converted amounts (≈) assume the structure as drawn. Like-named read-outs stand apart in the source and are kept apart here.

Experiments:
[1] = tested on: S. aureus 01A1105; assay: MIC by serial agar dilution method, S. aureus 01A1105; format: cell-based, Staphylococcus aureus
Description: (§1) Other strains which have similar characteristics of resistance to drugs may be also used. Such strains are usually available for those skilled in the art.
(§2) MIC: minimum inhibitory concentration; for more detail see below.
(§3) Each strain of S. aureus 01A1105, E faecalis 03A1069 and E. coli 51A0266 is inoculated and grown in tube containing 10 ml of Trypticase Soy Broth (TSB, DIFCO), overnight at 37° C. shaking at 200 rpm. The cell-concentration of the culture is adjusted by dilution with TSB and 50% aqueous glycerol to an optical density of 1.4 at 600 nm (light path=1 cm) and a final glycerol concentration of 20%. The diluted culture is dispensed to cryotubes, 1 ml per vial, and stored at -80° C. until its use.
(§4) Each stock culture, 200 μl for S. aureus and E. coli and 1 ml for E. faecalis, is added to 100 ml of Mueller Hinton medium (DIFCO), mixed and poured into an assay plate. The stock culture (1 ml) of S. pyogenes is inoculated into a tube containing 20 ml TSB and 1.0 ml defibrinated horse blood (Nippon Bio-Supply Center), and incubated statically at 37° C. for 24 hours. The incubated culture (5 ml) and 5 ml of sheep blood (Nippon Bio-Supply Center) were added to Mueller Hinton medium (100 ml), mixed and poured into an assay plate.
(§5) For determination of minimum inhibitory concentration (MIC), serial agar dilution method is used with same incubation condition as described above. The growth of bacteria is monitored by measuring the optical density at 655 nm.
(§6) The compound prepared in Example 1(2R*,3R*-2,3-dihydro-2-[(E)-2-buten-2-yl]-4-hydroxy-3-methyl-5-phenylfuro[2,3-b]pyridine-3-carbaldehyde ) was tested according to the assay method described in pages 12 to 14.

[2] = tested on: S. pyogenes 02C1068; assay: MIC by serial agar dilution method, S. pyogenes 02C1068; format: cell-based; details: for MIC: Streptococcus pyogenes
Description: as §1, §2
The strain of S. pyogenes 02C1068 was inoculated and grown in tubes, containing 10 ml of TSB with 0.5 ml of lysed horse blood (Nippon Bio-Supply Center), statically for 24 hours at 37° C. After the incubation, the cells were centrifuged and resuspended in a mixture of 50% aqueous glycerol (4 ml) and defibrinated sheep blood (6 ml, Nippon Bio-Supply Center). The resulting cell-suspension was dispensed to cryotubes, 1 ml per vial, and stored at -80° C. until its use.
as §4, §5, §6

[3] = tested on: Staphylococcus aureus 01A1095; assay: MIC by serial agar dilution method, Staphylococcus aureus 01A1095; format: cell-based
Description: as §2, §5, §6

[4] = tested on: S. aureus 01A1120; assay: MIC by serial agar dilution method, S. aureus 01A1120; format: cell-based, Staphylococcus aureus
Description: as §2, §5, §6

[5] = tested on: S. hemolyticus 01E1006; assay: MIC by serial agar dilution method, S. hemolyticus 01E1006; format: cell-based
Description: as §2, §5, §6

[6] = tested on: Streptococcus agalactiae 02B1023; assay: MIC by serial agar dilution method, Streptococcus agalactiae 02B1023; format: cell-based
Description: as §2, §5, §6

[7] = tested on: S. pyogenes 02C1079; assay: MIC by serial agar dilution method, S. pyogenes 02C1079; format: cell-based
Description: as §2, §5, §6

[8] = tested on: S. pneumoniae 02J1046; assay: MIC by serial agar dilution method, S. pneumoniae 02J1046; format: cell-based, Streptococcus pneumoniae
Description: as §2, §5, §6

[9] = tested on: S. pneumoniae 02J1095; assay: MIC by serial agar dilution method, S. pneumoniae 02J1095; format: cell-based, Streptococcus pneumoniae
Description: as §2, §5, §6

[10] = tested on: Enterococcus faecalis 03A1069; assay: MIC by serial agar dilution method, Enterococcus faecalis 03A1069; format: cell-based
Description: as §1, §2, §3, §4, §5, §6

[11] = tested on: Haemophilus influenzae 54A0085; assay: MIC by serial agar dilution method, Haemophilus influenzae 54A0085; format: cell-based
Description: as §2, §5, §6

[12] = tested on: H. influenzae 54A0131; assay: MIC by serial agar dilution method, H. influenzae 54A0131; format: cell-based, Haemophilus influenzae
Description: as §2, §5, §6

[13] = tested on: Moraxella catarrhalis 87A1055; assay: MIC by serial agar dilution method, Moraxella catarrhalis 87A1055; format: cell-based
Description: as §2, §5, §6

[14] = tested on: Escherichia coli 51A0266; assay: MIC by serial agar dilution method, Escherichia coli 51A0266; format: cell-based
Description: as §1, §2, §3
as §4, with “The incubated culture (5 ml) and 5 ml of sheep blood (Nippon Bio-Supply Center) were added to Mueller Hinton medium (100 ml), mixed and poured into an assay plate.” left out
For determination of minimum inhibitory concentration (MIC), serial agar dilution method is used with same incubation condition as described above. The growth of bacteria is monitored by measuring the optical density at 655 nm. […]

[15] = tested on: E. coli 51A1051; assay: MIC by serial agar dilution method, E. coli 51A1051; format: cell-based, Escherichia coli
Description: as §2, §5, §6

[16] = tested on: E. coli 51A1073; assay: MIC by serial agar dilution method, E. coli 51A1073; format: cell-based, Escherichia coli
Description: as §2, §5, §6

[17] = tested on: E. coli 51A1074; assay: MIC by serial agar dilution method, E. coli 51A1074; format: cell-based, Escherichia coli
Description: as §2, §5, §6

[18] = tested on: E. coli 51A1075; assay: MIC by serial agar dilution method, E. coli 51A1075; format: cell-based, Escherichia coli
Description: as §2, §5, §6

[19] = tested on: various bacteria; assay: Antibacterial assay, overall result in words; format: cell-based
Description: Sample solution is loaded and dried on a paper disk (i.d. 6 mm, thin, Advantec) which is placed on the assay plate and incubated overnight at 37° C. The activity is determined by measuring the size of growth-inhibition zone around the disk. As controls, vancomycin 1 μg and tetracycline 1 μg disks are used.
as §5, §6

[20] = Staphylococcus aureus 01A1105, antibiotic resistance of strain, read-out: MIC (minimum inhibitory concentration)
[21] = Storeptococcus pyogenes 02C1068, antibiotic resistance of strain, read-out: MIC (minimum inhibitory concentration)
[22] = Enterococcus faecalis, 03A1069, read-out: MIC (minimum inhibitory concentration)
[23] = Staphylococcus aureus, 01A1105, read-out: MIC (minimum inhibitory concentration)

## CCC[C@@H]1C[C@@H](C(=O)N[C@@H]([C@H]2O[C@H](SC)[C@H](O)[C@@H](O)[C@H]2O)[C@H](C)Cl)N(C)C1 [clindamycin]
[1]; [20]
  MIC: > 256 µg/mL
[2]; [21]
  MIC: > 64 µg/mL

## C/C=C(\C)[C@H]1Oc2ncc(-c3ccccc3)c(O)c2[C@@]1(C)C=O (relative stereo) [Example 1, 2R*,3R*-2,3-dihydro-2-[(E)-2-buten-2-yl]-4-hydroxy-3-methyl-5-phenylfuro[2,3-b]pyridine-3-carbaldehyde]
[3]
  minimum inhibitory concentration (MIC): 100
[1]; S. aureus 01A1105, multidrug resistant
  minimum inhibitory concentration (MIC): 25
[4]
  minimum inhibitory concentration (MIC): 25
[5]
  minimum inhibitory concentration (MIC): 100
[6]
  minimum inhibitory concentration (MIC): 25
[2]; S. pyogenes 02C1068, multidrug resistant
  minimum inhibitory concentration (MIC): 6.25
[7]
  minimum inhibitory concentration (MIC): 12.5
[8]
  minimum inhibitory concentration (MIC): 25
[9]
  minimum inhibitory concentration (MIC): 6.25
[10]; Enterococcus faecalis 03A1069, multidrug resistant
  minimum inhibitory concentration (MIC): 100
[11]
  minimum inhibitory concentration (MIC): 50
[12]
  minimum inhibitory concentration (MIC): 100
[13]
  minimum inhibitory concentration (MIC): 50
[14]; Escherichia coli 51A0266
  minimum inhibitory concentration (MIC): > 100
[15]
  minimum inhibitory concentration (MIC): > 100
[16]
  minimum inhibitory concentration (MIC): > 100
[17]
  minimum inhibitory concentration (MIC): > 100
[18]
  minimum inhibitory concentration (MIC): 100
[19]
  antibacterial activity against various bacteria: remarkable antibacterial activity against various bacteria

## CC(=O)OCC1=C(C(=O)O)N2C(=O)[C@@H](NC(=O)Cc3cccs3)[C@H]2SC1 [cephalothin]
[10]; [22]
  MIC: 128 µg/mL (≈ 323 µM)

## O=C(O)c1cn(C2CC2)c2cc(N3CCNCC3)c(F)cc2c1=O [ciprofloxacin]
[1]; [23]
  MIC: > 32 µg/mL

## CO/N=C(\C(=O)N[C@@H]1C(=O)N2C(C(=O)O)=C(COC(C)=O)CS[C@H]12)c1csc(N)n1 [cefataxime]
[1]; [20]
  MIC: > 256 µg/mL

## CC[C@H]1OC(=O)[C@H](C)[C@@H](O[C@H]2C[C@@](C)(OC)[C@@H](O)[C@H](C)O2)[C@H](C)[C@@H](O[C@@H]2O[C@H](C)C[C@H](N(C)C)[C@H]2O)[C@](C)(O)C[C@@H](C)C(=O)[C@H](C)[C@@H](O)[C@]1(C)O [erythromycin]
[1]; [23]
  MIC: > 256 µg/mL
[2]; 02C1068, read-out: MIC (minimum inhibitory concentration)
  MIC: > 64 µg/mL

## CC1(C)S[C@@H]2[C@H](NC(=O)Cc3ccccc3)C(=O)N2[C@H]1C(=O)O [penicillin G]
[1]; [23]
  MIC: 64 µg/mL (≈ 191 µM)
[10]; [22]
  MIC: 6 µg/mL (≈ 17.9 µM)

## CN(C)C1C(=O)C(C(N)=O)=C(O)C2(O)C(=O)C3=C(O)c4c(O)cccc4C(C)(O)C3CC12 (stereo not drawn) [tetracycline]
[1]; [23]
  MIC: 128 µg/mL (≈ 288 µM)

## O=C(N[C@H](CO)[C@H](O)c1ccc([N+](=O)[O-])cc1)C(Cl)Cl [chloramphenicol]
[10]; [22]
  MIC: 16 µg/mL (≈ 49.5 µM)

## gentamicin
[1]; Staphylococcus aureus 01A1105, antibiotic resistance of strain
  MIC (minimum inhibitory concentration): 64 µg/mL

## CC[C@H]1OC(=O)[C@H](C)[C@@H](O[C@H]2C[C@@](C)(OC)[C@@H](O)[C@H](C)O2)[C@H](C)[C@@H](O[C@@H]2O[C@H](C)C[C@H](N(C)C)[C@H]2O)[C@](C)(O)C[C@@H](C)CN(C)[C@H](C)[C@@H](O)[C@]1(C)O [azithromycin]
[2]; [21]
  MIC: > 16 µg/mL
[10]; Enterococcus faecalis 03A1069, antibiotic resistance of strain, read-out: MIC (minimum inhibitory concentration)
  MIC: > 256 µg/mL

## CN[C@H](CC(C)C)C(=O)N[C@H]1C(=O)N[C@@H](CC(N)=O)C(=O)N[C@H]2C(=O)N[C@H]3C(=O)N[C@H](C(=O)N[C@H](C(=O)O)c4cc(O)cc(O)c4-c4cc3ccc4O)[C@H](O)c3ccc(c(Cl)c3)Oc3cc2cc(c3O[C@@H]2O[C@H](CO)[C@@H](O)[C@H](O)[C@H]2O[C@H]2C[C@](C)(N)[C@H](O)[C@H](C)O2)Oc2ccc(cc2Cl)[C@H]1O [vancomycin, reference compound]
[10]; [22]
  MIC: 24 µg/mL (≈ 16.6 µM)
[14]; Escherichia coli, 51A0266, read-out: MIC (minimum inhibitory concentration)
  MIC: > 128 µg/mL

## COc1cccc(OC)c1C(=O)N[C@@H]1C(=O)N2[C@@H]1SC(C)(C)[C@@H]2C(=O)O [methicillin]
[1]; [20]
  MIC: > 256 µg/mL
